Experimental data taken from patent EP0066351A1, “Arylethanol amine derivatives, their preparation and use in pharmaceutical compositions” (priority 1981, dated 1982).
Where a name gives a salt, the structure may show the parent alone. Read-outs that look alike come from different tables or passages of the source.

How the values were obtained:
Female CFLP mice [1] = assay: Hypoglycaemic activity: blood glucose after subcutaneous glucose load in fasted mice; format: in vivo; settings: glucose 1 g/kg s.c. 30 minutes after dosing, area over 2 hours vs water controls
Procedure: Female CFLP mice, each weighing approximately 25 g, were fasted for 24 hours prior to the study. The compounds under study were administered orally as an aqueous solution to each of 7 mice. 7 mice were given water as a control. 30 minutes later a blood sample (20 µl) was obtained from the tail for the analysis of blood glucose. Immediately after taking this blood sample, glucose (1 g/kg body weight) was administered subcutaneously to each mouse. Blood samples were then obtained from each mouse at 30 minute intervals for 120 minutes.
Compounds that produced a significant (P<0.05) reduction of blood glucose, compared with control mice given water, at any time interval, were considered active. The area under the blood glucose curve over the 2 hour period after the administration of the glucose was calculated for each compound and compared with the value for control animals.

Female CFLP mice [2] = assay: Effect on energy expenditure and food intake of mice; format: in vivo; settings: Mus musculus; for response vs control in vivo at 20.8 mg/kg / response vs control in vivo at 25.5 mg/kg / response vs control in vivo at 20.7 mg/kg / response vs control in vivo at 21.3 mg/kg / response vs control in vivo at 23.6 mg/kg / response vs control in vivo at 25.6 mg/kg / response vs control in vivo at 26.7 mg/kg / response vs control in vivo at 21.2 mg/kg / response vs control in vivo at 23.8 mg/kg / response vs control in vivo at 18.8 mg/kg / response vs control in vivo at 19.6 mg/kg: po, 21 h; for response vs control in vivo at 18.9 mg/kg: dose 18.9 mg/kg po, mice, 21 hours after dosing, percentage of mice dosed with water
Procedure: Female CFLP mice each weighing approximately 24 g, were given food and water ad lib before and during the experiment. The compounds were dissolved in water by addition of one mole of hydrochloric acid per mole of compound and these solutions were administered orally to each of 12 mice. A further 12 mice were dosed orally with water. The mice were placed in boxes through which air was drawn and the oxygen content of the air leaving the boxes was measured. The energy expenditure of the mice was calculated for 21 hours after dosing from the volume of air leaving the boxes and its oxygen content following the principles described by J B de V Weir, J Physiol (London) 109, 1-9, (1949). The food intake of the mice was measured over this same period of 21 hours. The results are expressed as a percentage of the mean food intake or rate of energy expenditure of the mice dosed with water.

Rat hearts = assay: Cardiac activity: rat hearts perfused by the Langendorff procedure
Procedure: Rat hearts were perfused by the Langendorff procedure as follows: • Hearts were dissected free within 30 seconds of death and reverse perfused via the aorta and coronary vessels with Krebs-Ringer bicarbonate solution (pH 7.4, 37 °C) gassed with 95% oxygen:5% carbon dioxide at a flow rate between 8-12 cm^3/minute. Responses were observed after injection of drug dissolved in isotonic saline into the perfusion media.
Results are expressed as a percentage of the maximum response due to salbutamol.

platelets = assay: Collagen-induced platelet aggregation in human whole blood in vitro; format: cell-based; settings: collagen EC50 in presence of compound divided by control EC50, 3 mins preincubation
Procedure: Collagen-induced platelet aggregation in human whole blood in vitro.
Collagen added to stirred citrated blood causes platelet aggregation. As the platelets aggregate, the concentration of single platelets falls. […] Inhibitors of aggregation, such as aspirin and dipyridamole, reduce the response to collagen.
Blood drawn from volunteers who denied taking aspirin within the previous seven days was mixed with 0.1 vol 129 mM trisodium citrate, dispensed into 0.5 ml aliquots and kept at 25°. Collagen (Hormon-Chemie, Munich) or 154 mM NaCl (control) was added to each aliquot of blood stirred at 1100 rpm in an aggregometer at 37° after 3 mins preincubation with compound or appropriate solvent. Aggregates were fixed by addition of 0.5 vol 4.5% formaldehyde or 0.05 vol phosphate-buffered glutaraldehyde. Single platelets were counted electronically. Responses, expressed as per cent fall in platelet count, were obtained to a range of collagen concentrations. The concentration producing a 50% maximal effect (EC50) was estimated from log10 concentration-response curves. Dose-ratios were calculated by dividing the EC50 obtained in the presence of compound under test by the control EC50.

rat ear = assay: Topical anti-inflammatory activity: croton oil induced inflammation in the rat ear; format: in vivo; settings: dose 1.0 mg/rat ear, topical in 1% croton oil in tetrahydrofuran; ear weight after 6 hours; active = significant (5% level) reduction vs non-drug treated control
Procedure: The method used is based on that described by G. Tonelli et al (Endocrinology, 77, 625-634, 1965). An inflammation is induced in the rat ear by the application of 50 µl of a 1% solution of croton oil in tetrahydrofuran, test compounds being dissolved in the irritant vehicle. After 6 hours the inflammation is assessed by killing the animals and weighing the ears. Topical anti-inflammatory activity of a compound is generally considered to be shown when a significant (5% level) reduction in ear weight is seen compared to non-drug treated control.

[3] = read-out: Mean Energy Expenditure (%)
[4] = Rattus norvegicus, read-out: Heart Rate
[5] = Rattus norvegicus, read-out: Heart Tension
[6] = final concentration in whole blood 200 µM
[7] = final concentration in whole blood 300 µM
[8] = 10 μg added to perfusate, percentage of the maximum response due to salbutamol, perfused rat heart, read-out: Heart Rate
[9] = 10 μg added to perfusate, percentage of the maximum response due to salbutamol, perfused rat heart, read-out: Heart Tension

CC(Cc1ccc(O)c(Cl)c1)NCC(O)c1cccc(C(F)(F)F)c1 (stereo not shown) [Example 8, N-[2-(3-Chloro-4-hydroxyphenyl)-1-methylethyl]-2-hydroxy-2-(3-trifluoromethylphenyl)ethanamine]
Reduction in area under Blood glucose curve (%) (Female CFLP mice [1]; dose 2.5 μ moles/kg po): 11%
response vs control in vivo at 20.8 mg/kg (Female CFLP mice [2]; [3]): 118%
response vs control in vivo at 20.8 mg/kg (Female CFLP mice [2]; read-out: Mean Food Intake (%)): 88%
Emax at 0.01 mg (Rat hearts; [4]): 23%
Emax at 0.01 mg (Rat hearts; [5]): 8%

OCCN(CCO)c1nc(N2CCCCC2)c2nc(N(CCO)CCO)nc(N3CCCCC3)c2n1 [Dipyridamole, reference compound]
Dose-ratio (platelets; [6]): 3.7 ± 1.1(4)

COc1ccc(C[C@@H](C)NC[C@H](O)c2cccc(C(F)(F)F)c2)cc1F (racemic) [Example 9, N-[2-(3-Fluoro-4-methoxyphenyl)-1-methylethyl]-2-hydroxy-2-(3-trifluoromethylphenyl)ethanamine hydrobromide-(RR,SS) diastereoisomer]
Reduction in area under Blood glucose curve (%) (Female CFLP mice [1]; dose 2.5 μ moles/kg po): 18%
response vs control in vivo at 25.5 mg/kg (Female CFLP mice [2]; [3]): 115%
response vs control in vivo at 25.5 mg/kg (Female CFLP mice [2]; read-out: Mean Food Intake (%)): 78%
Emax at 0.01 mg (Rat hearts; [4]): 16%
Emax at 0.01 mg (Rat hearts; [5]): 4%

COc1ccc(CC(C)NCC(O)c2cccc(C(F)(F)F)c2)cc1F (stereo not shown) [Example 4, N-[2-(3-Fluoro-4-methoxyphenyl)-1-methylethyl]-2-hydroxy-2 (3-trifluoromethylphenyl)ethanamine]
Reduction in area under Blood glucose curve (%) (Female CFLP mice [1]; dose 1.0 μ moles/kg po): 28%
response vs control in vivo at 20.7 mg/kg (Female CFLP mice [2]; [3]): 113%
response vs control in vivo at 20.7 mg/kg (Female CFLP mice [2]; read-out: Mean Food Intake (%)): 86%
Emax at 0.01 mg (Rat hearts; [4]): 0%
Emax at 0.01 mg (Rat hearts; [5]): 5%
Dose-ratio (platelets; [7]): 2.3

COc1ccc(CCC(C)(C)NCC(O)c2cccc(C(F)(F)F)c2)cc1 (stereo not shown) [Example 14, N-[3-(4-Methoxyphenyl)-1,1-dimethylpropyl]-2-hydroxy-2-(3-trifluoromethylphenyl) ethanamine]
Reduction in area under Blood glucose curve (%) (Female CFLP mice [1]; dose 100 μ moles/kg po): 34%

COc1ccc(CC(C)NCC(O)c2cccc(C(F)(F)F)c2)cc1OC (stereo not shown) [Example 3, N-[2-(3,4-Dimethoxyphenyl)-1-methylethyl]-2-hydroxy-2-(3-trifluoromethylphenyl)ethanamine]
Reduction in area under Blood glucose curve (%) (Female CFLP mice [1]; dose 12.5 μ moles/kg po): 43%
Activity (rat ear): Active
response vs control in vivo at 21.3 mg/kg (Female CFLP mice [2]; [3]): 109%
response vs control in vivo at 21.3 mg/kg (Female CFLP mice [2]; read-out: Mean Food Intake (%)): 100%
Emax at 0.01 mg (Rat hearts; [8]): 14%
Emax at 0.01 mg (Rat hearts; [9]): 33%

CCCCCOc1ccc(CC(C)NCC(O)c2cccc(C(F)(F)F)c2)cc1 (stereo not shown) [Example 11, N-[2-(4-^nPentyloxyphenyl)-1-methylethyl]-2-hydroxy-2-(3-trifluoromethylphenyl) ethanamine]
Reduction in area under Blood glucose curve (%) (Female CFLP mice [1]; dose 2.5 μ moles/kg po): 47%
response vs control in vivo at 23.6 mg/kg (Female CFLP mice [2]; [3]): 118%
response vs control in vivo at 23.6 mg/kg (Female CFLP mice [2]; read-out: Mean Food Intake (%)): 106%

CC(Cc1ccc(OCc2ccccc2)c(Cl)c1)NCC(O)c1cccc(C(F)(F)F)c1 (stereo not shown) [Example 7, N-[2-(4-Benzyloxy-3-chlorophenyl)-1-methylethyl]-2-hydroxy-2-(3-trifluoromethylphenyl)ethanamine]
Reduction in area under Blood glucose curve (%) (Female CFLP mice [1]; dose 12.5 μ moles/kg po): 28%
Emax at 0.01 mg (Rat hearts; [8]): 0%
Emax at 0.01 mg (Rat hearts; [9]): 0%

COc1cc(CC(C)NCC(O)c2cccc(C(F)(F)F)c2)ccc1OCc1ccccc1 (stereo not shown) [Example 6, N-[2-(4-Benzyloxy-3-methoxyphenyl)-1-methylethyl]-2-hydroxy-2-(3-trifluoromethylphenyl)ethanamine]
response vs control in vivo at 25.6 mg/kg (Female CFLP mice [2]; [3]): 114%
response vs control in vivo at 25.6 mg/kg (Female CFLP mice [2]; read-out: Mean Food Intake (%)): 75%
Emax at 0.01 mg (Rat hearts; [8]): 6%
Emax at 0.01 mg (Rat hearts; [9]): 25%

CCCCCCCCCCOc1ccc(CC(C)NCC(O)c2cccc(C(F)(F)F)c2)cc1 (stereo not shown) [Example 10, N-[2-(4-^nDecyloxyphenyl)-1-methylethyl)-2-hydroxy-2-(3-trifluoromethylphenyl) ethanamine]
Reduction in area under Blood glucose curve (%) (Female CFLP mice [1]; dose 5.0 μ moles/kg po): 48%
response vs control in vivo at 26.7 mg/kg (Female CFLP mice [2]; [3]): 118%
response vs control in vivo at 26.7 mg/kg (Female CFLP mice [2]; read-out: Mean Food Intake (%)): 89%

CC(=O)Oc1ccccc1C(=O)O [Aspirin, reference compound]
Dose-ratio (platelets; [6]): 2.4 ± 0.3(3)

COc1ccc(CCNCC(O)c2cccc(C(F)(F)F)c2)cc1 (stereo not shown) [Example 13, N-[2-(4-Methoxyphenyl)ethyl]-2-hydroxy-2-(3-trifluoromethylphenyl) ethanamine]
Reduction in area under Blood glucose curve (%) (Female CFLP mice [1]; dose 5.0 μ moles/kg po): 27%
response vs control in vivo at 18.9 mg/kg (Female CFLP mice [2]; [3]): 112%
response vs control in vivo at 18.9 mg/kg (Female CFLP mice [2]; read-out: Mean Food Intake (%)): 104%

CC(Cc1ccc(OC(C)C)cc1)NCC(O)c1cccc(C(F)(F)F)c1 (stereo not shown) [Example 12, N-(2-(4-Isopropoxyphenyl)-1-methylethyl]-2-hydroxy-2-(3-trifluoromethylphenyl) ethanamine]
Reduction in area under Blood glucose curve (%) (Female CFLP mice [1]; dose 2.5 μ moles/kg po): 52%
response vs control in vivo at 21.2 mg/kg (Female CFLP mice [2]; [3]): 122%
response vs control in vivo at 21.2 mg/kg (Female CFLP mice [2]; read-out: Mean Food Intake (%)): 94%

CC(Cc1ccc(OCc2ccccc2)cc1)NCC(O)c1cccc(C(F)(F)F)c1 (stereo not shown) [Example 1, N-[2-(4-Benzyloxyphenyl)-1-methylethyl]-2-hydroxy-2-(3-trifluoromethylphenyl)ethanamine]
Reduction in area under Blood glucose curve (%) (Female CFLP mice [1]; dose 12.5 μ moles/kg po): 36%
response vs control in vivo at 23.8 mg/kg (Female CFLP mice [2]; [3]): 115%
response vs control in vivo at 23.8 mg/kg (Female CFLP mice [2]; read-out: Mean Food Intake (%)): 100%
Emax at 0.01 mg (Rat hearts; [8]): 0%
Emax at 0.01 mg (Rat hearts; [9]): 7%

CC(Cc1ccc(O)cc1)NCC(O)c1cccc(C(F)(F)F)c1 (stereo not shown) [Example 2, N-[2-(4-Hydroxyphenyl)-1-methylethyl]-2-hydroxy-2-(3-trifluoromethylphenyl)ethanamine]
Reduction in area under Blood glucose curve (%) (Female CFLP mice [1]; dose 12.5 μ moles/kg po): 59%
Activity (rat ear): Active
response vs control in vivo at 18.8 mg/kg (Female CFLP mice [2]; [3]): 126%
response vs control in vivo at 18.8 mg/kg (Female CFLP mice [2]; read-out: Mean Food Intake (%)): 90%
Emax at 0.01 mg (Rat hearts; [4]): 73%
Emax at 0.01 mg (Rat hearts; [5]): 64%
Dose-ratio (platelets; [7]): 2.2

COc1ccc(CC(C)NCC(O)c2cccc(C(F)(F)F)c2)cc1 (stereo not shown) [Example 5, N-[2-(4-Methoxyphenyl)-1-methylethyl]-2-hydroxy-2-(3-trifluoromethylphenyl) ethanamine]
Reduction in area under Blood glucose curve (%) (Female CFLP mice [1]; dose 1.0 μ moles/kg po): 27%
response vs control in vivo at 19.6 mg/kg (Female CFLP mice [2]; [3]): 119%
response vs control in vivo at 19.6 mg/kg (Female CFLP mice [2]; read-out: Mean Food Intake (%)): 88%
Emax at 0.01 mg (Rat hearts; [4]): 0%
Emax at 0.01 mg (Rat hearts; [5]): 8%
